Earlier results on one molecule are cited in patent publication US20190290478A1, “MEDICINAL HERBAL COMPOSITION FOR EYE APPLICATION” (priority 2018, published 2019).

SMILES strings stand for the structures.

One data set concerns murine dry eye. The following applies: 10 mM betaine compared with placebo on the 14, 21, 35 days.
For data set [1], the system named is HCECs exposed to hyperosmotic stress.

In the case of `C[N+](C)(C)CC(=O)O` [betaine], the “dry eye's symptom” value in the data set with murine dry eye is given as “significantly reduced”. Besides, in data set [1], the “inflammatory response via TRPV1 pathway” value was “suppress inflammatory response”.
